Laboratory results taken from patent US20110092703A1, “P2X4 RECEPTOR ANTAGONIST” (NIPPON CHEMIPHAR CO., LTD., priority 2007, published 2011).
Where a name gives a salt, the structure may show the parent alone.

What was measured:
[1] = biological target: T1, human Serotonin transporter (Homo sapiens, UniProt P31645); experiment: [3H]paroxetine binding to serotonin transporter; settings: read-out: Percent inhibition (10^−7 M)
T1 construct: expressed in transfected cells; cell membranes
Protocol: After incubation for 60 min at 25° C., the reaction was terminated by rapid filtration through GF/B glass fiber filter and rinsed with ice-cold incubation buffer. The retained radioactivity on filter was measured by a liquid scintillation counter. Nonspecific binding was defined with 10 μM imipramine and subtracted from total binding to determine specific binding. Inhibition activities of tested compounds were determined as a percent inhibition of the specific binding.

P2X4 receptor [2] = biological target: T2, P2X4 receptor (Homo sapiens, UniProt Q99571); experiment: P2X4 antagonism study by measurement of intracellular Ca2+ influx response; type: cell-based; set-up: expressed in transfected cells; settings: 1321N1 cells stably expressing human P2X4; 1 μM ATP; compound 15 min before ATP; Fura-2 F340/F380; read-out: Inhibitory activity: IC50
T2 sequence (Q99571 1-388): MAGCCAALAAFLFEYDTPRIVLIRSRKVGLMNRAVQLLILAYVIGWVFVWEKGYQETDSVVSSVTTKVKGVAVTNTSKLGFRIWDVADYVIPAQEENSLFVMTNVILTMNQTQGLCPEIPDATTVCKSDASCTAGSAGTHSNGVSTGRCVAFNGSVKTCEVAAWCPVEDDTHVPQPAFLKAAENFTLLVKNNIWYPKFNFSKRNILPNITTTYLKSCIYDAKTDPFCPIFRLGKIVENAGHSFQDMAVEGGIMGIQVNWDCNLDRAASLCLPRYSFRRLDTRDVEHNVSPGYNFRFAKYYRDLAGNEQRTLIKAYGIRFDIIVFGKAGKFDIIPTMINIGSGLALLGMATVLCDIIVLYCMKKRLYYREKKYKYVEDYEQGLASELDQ
Protocol: (§1) 1321N1 cells stably expressing human P2X4 receptors were adopted for calcium influx assay. P2X4/1321N1 cells were plated in 96-well assay plate and cultured 24 hours in an atmosphere of 5% CO2 at 37° C. Fura-2 AM calcium indicator in assay buffer (150 mM NaCl, 5 mM KCl, 1.8 mM CaCl2, 1.2 mM MgCl2, 10 mM D-glucose and 25 mM HEPES, pH 7.4) was loaded onto cells for 1 hour at room temperature and the fluorescence was detected by FLUOstar Optima micro plate reader (BMG labtech). The cells were alternatively illuminated with two excitations wavelengths (340 nm and 380 nm) via xenon lamp and the emitted fluorescence was measured at 510 nm. The fluorescence changes after the treatment of 1 μM ATP were monitored and determined the fluorescence ratio (F340/F380) as the index of intracellular calcium change. Tested compound were treated to cells 15 min before the addition of ATP and the inhibition activity of compounds was calculated by comparing the Ca^2+ response with control in the absence of tested compound.
as §1, with “pH7.4)” for “pH 7.4)”

serotonin reuptake = biological target: T3, serotonin reuptake (Rattus norvegicus, UniProt P31652); experiment: Serotonin reuptake inhibition assay ([3H]serotonin, synaptosomes prepared from the rat brain); type: biochemical; settings: 10^−7 M compound, 15 min at 37° C., read-out: Percent inhibition (10^−7 M)
T3 construct: synaptosomes prepared from the rat brain; from tissue; host or cells: rat brain synaptosomes
T3 sequence (P31652 whole entry): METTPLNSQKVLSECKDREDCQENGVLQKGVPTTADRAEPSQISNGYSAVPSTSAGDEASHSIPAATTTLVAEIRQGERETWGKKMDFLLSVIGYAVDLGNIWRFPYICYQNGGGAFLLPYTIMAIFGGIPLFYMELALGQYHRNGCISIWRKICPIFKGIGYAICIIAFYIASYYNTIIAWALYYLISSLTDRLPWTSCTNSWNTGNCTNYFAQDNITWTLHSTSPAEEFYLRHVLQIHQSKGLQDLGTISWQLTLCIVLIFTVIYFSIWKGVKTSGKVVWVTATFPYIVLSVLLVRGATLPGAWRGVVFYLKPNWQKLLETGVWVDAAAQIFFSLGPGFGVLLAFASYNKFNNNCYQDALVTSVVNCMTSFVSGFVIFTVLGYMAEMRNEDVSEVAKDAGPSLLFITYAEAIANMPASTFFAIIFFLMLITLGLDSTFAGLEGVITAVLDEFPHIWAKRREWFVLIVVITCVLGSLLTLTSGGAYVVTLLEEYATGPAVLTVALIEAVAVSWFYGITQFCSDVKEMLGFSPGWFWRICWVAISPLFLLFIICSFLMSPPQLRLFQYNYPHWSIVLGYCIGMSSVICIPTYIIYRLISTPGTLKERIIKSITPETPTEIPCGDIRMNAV
Protocol: 100 μg of the synaptosomes prepared from the rat brain were incubated for 15 min at 37° C. with 0.1 μCi [^3H]serotonin in the presence of tested compound in a buffer containing 106.2 mM NaCl, 4.5 mM KCl, 2.25 mM MgSO4, 1.08 mM NaH2PO4, 22.5 mM NaHCO3, 9.9 mM glucose, 9 μM EGTA and 45 μM ascorbic acid (pH 7.4). Basal control activity was determined by incubating the same mixture for 15 min at 4′C in the presence of 10 μM imipramine. Following incubation, the samples were filtered rapidly under vacuum through GF/B glass fiber filters and rinsed twice with ice-cold incubation buffer using a cell harvester. The retained radioactivity on filters was measured in TopCount scintillation counter. The results were expressed as a percent inhibition of the specific binding in the absence of tested compound.
100 μg of the synaptosomes prepared from the rat brain were incubated for 15 min at 37° C. with 0.1 μCi [^3H]serotonin in the presence of tested compound in a buffer containing 106.2 mM NaCl, 4.5 mM KCl, 2.25 mM MgSO4, 1.08 mm NaH2PO4, 22.5 mM NaHCO3, 9.9 mM glucose, 9 μM EGTA and 45 μM ascorbic acid (pH 7.4). Basal control activity was determined by incubating the same mixture for 15 min at 4° C. in the presence of 10 μM imipramine. […] The retained radioactivity on filters was measured in TopCount scintillation counter. […]

P2X4 receptor [3] = biological target: T2, P2X4 receptor; settings: disclosed in WO 2007/049825 / Abstract P3-N-114; cited from earlier work

T1 sequence (P31645 whole entry): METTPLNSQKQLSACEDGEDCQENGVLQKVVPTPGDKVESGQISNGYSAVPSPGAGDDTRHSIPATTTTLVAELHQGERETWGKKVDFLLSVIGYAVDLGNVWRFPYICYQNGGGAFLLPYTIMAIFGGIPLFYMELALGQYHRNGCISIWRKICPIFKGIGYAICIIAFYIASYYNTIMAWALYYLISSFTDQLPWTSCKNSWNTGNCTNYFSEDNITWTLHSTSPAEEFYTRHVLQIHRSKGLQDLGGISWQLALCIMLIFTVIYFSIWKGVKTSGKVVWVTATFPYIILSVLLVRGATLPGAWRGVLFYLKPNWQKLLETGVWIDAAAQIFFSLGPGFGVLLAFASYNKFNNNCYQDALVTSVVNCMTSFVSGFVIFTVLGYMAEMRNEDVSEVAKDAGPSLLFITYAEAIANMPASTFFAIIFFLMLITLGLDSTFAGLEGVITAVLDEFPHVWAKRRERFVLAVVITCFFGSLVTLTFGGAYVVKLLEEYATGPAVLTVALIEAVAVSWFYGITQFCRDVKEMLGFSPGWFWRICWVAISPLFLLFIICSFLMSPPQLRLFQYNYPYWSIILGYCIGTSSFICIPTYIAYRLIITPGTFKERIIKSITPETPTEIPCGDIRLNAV

Cc1cccc(C)c1N1CCNCC1COc1ccc(Cl)cc1.Cl (centres unmarked)
melting point: 97 to 100 °C

CC(C)c1ccc(N2CCNCC2COc2ccc(Cl)cc2)cc1 (centres unmarked) [Example 1, 2-(4-Chlorophenoxymethyl)-1-(4-isopropylphenyl)piperazine hydrochloride]
inhibition at 0.1 µM [1]: 17% | IC50 (P2X4 receptor [2]): 6.9 µM

CCCc1ccc(N2CCNCC2COc2ccc(Cl)cc2)cc1 (centres unmarked) [Example 2, 2-(4-Chlorophenoxymethyl)-1-(4-propylphenyl)piperazine hydrochloride]
inhibition at 0.1 µM [1]: 31% | IC50 (P2X4 receptor [2]): 7.6 µM

CC(C)c1cccc(N2CCNCC2COc2ccc(Cl)cc2)c1 (centres unmarked) [Example 3, 2-(4-Chlorophenoxymethyl)-1-(3-isopropylphenyl)piperazine hydrochloride]
inhibition at 0.1 µM [1]: 13% | IC50 (P2X4 receptor [2]): 8.3 µM

Cc1cc(C)c(N2CCNCC2COc2ccc(Cl)cc2)c(C)c1 (centres unmarked) [Example 7, 2-(4-Chlorophenoxymethyl)-1-(2,4,6-trimethylphenyl)piperazine hydrochloride]
inhibition at 0.1 µM [1]: 26% | IC50 (P2X4 receptor [2]): 3.1 µM

Clc1ccc(OCC2CNCCN2c2ccc3c(c2)CCC3)cc1 (centres unmarked) [Example 10, 2-(4-Chlorophenoxymethyl)-1-indan-5-yl-piperazine hydrochloride]
inhibition at 0.1 µM [1]: 44% | IC50 (P2X4 receptor [2]): 4.7 µM

CC(C)c1ccc(N2CCNCC2COc2ccc3c(c2)OCO3)cc1 (centres unmarked) [Example 11, 1-(4-Isopropylphenyl)-2-(3,4-methylenedioxyphenoxymethyl)piperazine hydrochloride]
IC50 (P2X4 receptor [2]): 7.4 µM

CC(C)c1cccc(N2CCNCC2COc2ccc(OC(C)(C)C)cc2)c1 (centres unmarked) [Example 13, 2-(4-tert-Butoxyphenoxymethyl)-1-(3-isopropylphenyl)piperazine hydrochloride]
IC50 (P2X4 receptor [2]): 2.9 µM

CC(C)c1ccc(N2CCNCC2COc2ccc(S(N)(=O)=O)cc2)cc1 (centres unmarked) [Example 15, 1-(4-Isopropylphenyl)-2-(4-sulfamoylphenoxymethyl)piperazine hydrochloride]
IC50 (P2X4 receptor [2]): 6.3 µM

CC(C)NS(=O)(=O)c1ccc(OCC2CNCCN2c2ccc(C(C)C)cc2)cc1 (centres unmarked) [Example 16, 1-(4-Isopropylphenyl)-2-[4-(isopropylsulfamoyl)phenoxymethyl]piperazine hydrochloride]
inhibition at 0.1 µM (serotonin reuptake): 11% | IC50 (P2X4 receptor [2]): 2.8 µM

CC(C)c1ccc(N2CCNCC2CSc2ccc(Cl)cc2)cc1 (centres unmarked) [Example 17, 2-(4-Chlorophenylsulfanylmethyl)-1-(4-isopropylphenyl)piperazine hydrochloride]
inhibition at 0.1 µM (serotonin reuptake): 4% | IC50 (P2X4 receptor [2]): 8.1 µM

Fc1ccc([C@@H]2CCNC[C@H]2COc2ccc3c(c2)OCO3)cc1 [Paroxetine]
P2X4 receptor antagonism (in words) (P2X4 receptor [3]): shows P2X4 receptor antagonism

CN(C)CCCN1c2ccccc2CCc2ccccc21 [imipramine]
P2X4 receptor antagonism (in words) (P2X4 receptor [3]): shows P2X4 receptor antagonism
